What was measured:
[1] = Acute toxicity in rabbit, cutaneous; conditions: in vivo, topical or ocular, read-out: NOEL (No Observable Effect Level)
[2] = system: mice; experiment: Chronic toxicity in mice, up to 270 days; assay type: in vivo; conditions: tested up to 270 days on mice
[3] = system: EAE (experimental autoimmune encephalomyelitis) model; experiment: EAE (experimental autoimmune encephalomyelitis) rat model, clinical score; assay type: in vivo, Lewis rats; conditions: for onset is delayed / recovery starts earlier: Figure 2, versus control
[4] = Acute toxicity in rat; conditions: in vivo

Compound: Cc1cc2nc3c4ccccc4n(CCN(C)C)c3nc2cc1C [B-220]
- NOAEL [1]: 200 mg/kg
- chronic toxicity [2]: has not induced toxicity
- reduces the CNS symptoms ([3]; Figure 1, 6 mg/animal daily, clinical score scale 0-5, versus negative control): 2/3
- onset is delayed ([3]; 6 mg/animal): ~2 days
- recovery starts earlier ([3]; 6 mg/animal): ~2 days
- onset is delayed ([3]; 12 mg/animal): ~4 days
- recovery starts earlier ([3]; 12 mg/animal): ~3 days
- NOAEL ([4]; intravenous, read-out: NOEL (No Observable Effect Level)): 12.5 mg/kg
- LD50 ([4]; iv): > 100 mg/kg
- LD50 ([4]; po): > 800 mg/kg

From patent publication EP1261344B1, “USE OF INDOLOQUINOXALINES FOR THE TREATMENT OF MULTIPLE SKLEROSIS” (OxyPharma AB, priority 2000, dated 2001)
